Starred links: 1 amine or outer side, 2 acyl side, 3 side chain; linkers in the order of their positions; H or OH if unused. Suc = O=C(CCC(=O)[*:2])[*:1] Some results are limits rather than exact numbers.

Data set [1] concerns mouse fibroblasts L929 cells. Type of data set: cell-based. To be noted: MTT, 72 h incubation, normal cells; read-out: IC50 (μM) ± SD L929. As for the experimental part:
(§1) All cell lines were purchased from the American Type Culture Collection (ATCC, Manassas, VA)[29].
(§2) 24 h later, triplicate wells were treated with media and the compounds being tested. After 72 h of incubation at 37 °C in 5% CO2, the drug-containing medium was removed and replaced with […] of fresh medium containing 5 mg/mL MTT solution. After 4 h of incubation, the medium with MTT was removed, and […] of dimethyl sulfoxide (DMSO) was added to each well. The plates were gently agitated until the purple formazan crystals were dissolved, and the OD490 values were determined using a microplate reader (MK3, Thermo, Germany). The data were calculated and plotted as the percent viability compared to the control.

Data set [2] concerns lung adenocarcinoma A549 cells. Type of data set: cell-based, human. To be noted: MTT, 72 h incubation; read-out: IC50 (μM) ± SD A549. As for the experimental part: as §1, §2
The subject of data set [3] is cervical carcinoma HeLa cells. Type of data set: cell-based, human. Conditions: MTT, 72 h incubation; read-out: IC50 (μM) ± SD Hela. Here is the method: as §1, §2
The test system of data set [4] is gastric adenocarcinoma SGC-7901 cells. Type of data set: cell-based, human. Conditions: MTT, 72 h incubation; read-out: IC50 (μM) ± SD SGC-7901. Here is the method:
as §1, §2

Data set [5] concerns cells over-expressing active legumain (M38L, HCT116). To be noted: HCT116 vs HEK293, M4C, SW620; cited from earlier work.
Data set [6] in a line: In vitro release of Deac from biotin conjugates with DTT (HPLC). Type of data set: physicochemical. Conditions: 5 μM conjugate. Here is the method: To investigate the mechanism of GSH-triggered drug release, the in vitro drug release profiles of Deac-SS-Biotin (9) and Deac-Biotin (10) were investigated using DTT (Glutathione mimetic). As shown in Figure 5(A), almost none of Deac was released from Deac-SS-Biotin (9) within 24 h in blank PBS (pH 7.2–7.4, without DTT), and more than 70% of Deac was released within 8 h in the presence of 5, 10, and 20 μM DTT. By contrast, there was negligible Deac (<1.0%) released from Deac-Biotin (10) after 24 h incubation in the presence or absence of 20 μM DTT (Figure 5(B)). […] Furthermore, Deac release from the Deac-SS-Biotin (9) at 10 μM DTT was also investigated by HPLC analysis (Figure 5(C)). Free Deac-SS-Biotin (9) was eluted at 10.8 min in HPLC chromatogram. As 10 μM DTT was added to Deac-SS-Biotin (9), it was sheared by DTT. As chemical reaction involved, this scission was subjected to intramolecular cyclisation, followed by ring-forming condensation, resulting in the liberation of Deac. The peak at 14.3 min appeared accompanied by the disappearance of Deac-SS-Biotin (9), and well-matched with free Deac.
Figure 5. In vitro release of Deac from prodrugs. (A) Release profiles of Deac from Deac-SS-Biotin (9, 5 μM) with 0 μM, 5 μM, 10 μM and 20 μM DTT in PBS (pH 7.2–7.4) (n = 3). (B) Release profiles of Deac from Deac-Biotin (10, 5 μM) with 0 μM, 5 μM, 10 μM and 20 μM DTT in PBS (pH 7.2–7.4) (n = 3). (C) HPLC spectra of Deac-SS-Biotin (9, 5 μM) with 10 μM DTT at 0 and 24 h.
The release of Deac from Deac-SS-Biotin was studied in PBS (pH 7.2–7.4) containing 20% DMSO with 0, 5, 10, or 20 μM, dithiothreitol (DTT), respectively. Briefly, biotin-conjugates (5 μM) were incubated in 10 ml of release medium at 37 °C. At timed intervals, 0.1 ml of sample was withdrawn, and the content of Deac, Deac-Biotin, and Deac-SS-Biotin was determined by HPLC (HPLC-LC-20AT, Shimadzu using SPD-20A UV as the detector, C18 (4.6 × 250 mm, […]) as HPLC analysis column. Method: gradient: 45% methanol in water as mobile elution, flow rate: 1.0 ml min^-1). The UV detector was kept at 254 nm.

Another data set has as its target porcine brain tubulin (Sus scrofa, UniProt P02550+P02554). As for the experimental part:
To examine the biological mechanism of biotin conjugates, Deac-SS-Biotin (9) was evaluated for its effects on tubulin polymerisation (Figure 7).
Figure 7. The effect of Deac-SS-Biotin (9) on tubulin polymerisation. […] The reaction was monitored at 37 °C.
First, 96-well plate was incubated with […] of inhibitors in various concentrations at 37 °C for 1 min. Then […] of the tubulin reaction mix was added. The samples were mixed well, and tubulin assembly was monitored (emission wavelength of 420 nm; excitation wavelength pf 360 nm) at 1 min intervals for 90 min at 37 °C using a plate reader (FAS-Calibur, BD Biosciences, USA).

The nature of data set [7]: Physiological stability by HPLC analysis. Type of data set: physicochemical. Conditions: 5 µM; water, PBS, and cell culture fluid; 72 h incubation, room temperature. As for the experimental part: Figure 4. Stabilities of Deac-SS-Biotin (9, 5 µM) in water, and PBS cell culture fluid were investigated by HPLC analysis. (A) HPLC analysis of Deac-SS-Biotin (9) in water after incubation for and 72 h; (B) HPLC analysis of Deac-SS-Biotin (9) in PBS after incubation for and 72 h; (C) HPLC analysis of Deac-SS-Biotin (9) in cell culture fluid after incubation for and 72 h.
To 8 ml of water, PBS, or cell culture fluid, 2 ml of DMSO stock solution of Deac-SS-Biotin was added. The mixture was incubated with gentle shaking for 72 h at room temperature during which the mixture was measured by HPLC spectra.

For a further data set, the system named is A549 cells. Description: Cytotoxicity in A549 cells in the presence of biotin (biotin receptor competition). Type of data set: cell-based, human. As for the experimental part: To explore the contribution of biotin receptor to the transport of biotin conjugates, Deac-SS-Biotin (9) and biotin were evaluated for the antiproliferative activity against A549 cells.
Figure 6. In vitro cytotoxicity of biotin, Deac (13), and Deac-SS-Biotin (9) in A549 cells. Cytotoxicity of biotin, Deac + biotin, and Deac-SS-Biotin + biotin in A549 cells (n = 3).
as §2

porcine brain tubulin, sequence (P02554 whole entry): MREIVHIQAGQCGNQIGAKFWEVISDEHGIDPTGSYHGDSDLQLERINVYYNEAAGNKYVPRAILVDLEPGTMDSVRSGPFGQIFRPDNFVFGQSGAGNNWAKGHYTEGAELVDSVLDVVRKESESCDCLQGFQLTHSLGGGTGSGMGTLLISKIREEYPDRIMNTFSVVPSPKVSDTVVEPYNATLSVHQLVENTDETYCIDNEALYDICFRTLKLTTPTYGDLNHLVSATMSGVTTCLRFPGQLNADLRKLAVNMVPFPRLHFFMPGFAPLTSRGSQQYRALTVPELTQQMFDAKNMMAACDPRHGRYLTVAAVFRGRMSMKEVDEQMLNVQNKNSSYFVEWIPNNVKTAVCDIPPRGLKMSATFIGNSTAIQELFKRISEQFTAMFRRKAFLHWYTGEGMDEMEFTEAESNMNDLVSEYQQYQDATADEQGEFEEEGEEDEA
porcine brain tubulin, sequence (P02550 whole entry): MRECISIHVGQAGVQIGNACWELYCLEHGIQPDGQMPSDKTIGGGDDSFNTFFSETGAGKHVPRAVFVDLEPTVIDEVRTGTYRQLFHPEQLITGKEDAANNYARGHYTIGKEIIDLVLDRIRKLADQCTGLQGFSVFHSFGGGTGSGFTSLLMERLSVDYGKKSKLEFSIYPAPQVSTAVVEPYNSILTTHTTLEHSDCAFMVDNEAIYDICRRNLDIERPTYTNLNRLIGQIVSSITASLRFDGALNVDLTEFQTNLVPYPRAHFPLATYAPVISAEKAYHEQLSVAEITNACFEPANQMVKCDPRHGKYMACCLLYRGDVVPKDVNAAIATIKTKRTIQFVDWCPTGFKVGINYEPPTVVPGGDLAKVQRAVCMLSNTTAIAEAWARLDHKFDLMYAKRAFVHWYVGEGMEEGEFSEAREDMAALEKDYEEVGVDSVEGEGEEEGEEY

One may read the IC50 as the point on the concentration scale where inhibition reaches its midpoint. Consider “4-oxo-4–(2-(5-((3aS,4S,6aR)-2-oxohexahydro-1H-thieno[3,4-d]imidazol-4-yl)pentanoyl)hydrazinyl)-N-((S)-2,3,4,10-tetramethoxy-9-oxo-5,6,7,9-tetrahydrobenzo[a]heptalen-7-yl)butanamide [Compound 11a]”, for which the IC50 in data set [1] was more than 20 µM; in data set [2] it was 6.52 ± 0.19 µM; in [3], 3.5 ± 0.15 µM; in [4] it was 7.52 ± 0.12 µM.

In the case of “5: legumain-cleavable peptide (Suc-Ala-Ala-Asn-Val)-colchicine (Suc-AANV-colchicine) [Compound 5]”, in [5], the “toxicity to cells over-expressing active legumain compared to cells expressing low levels of active or only prolegumain” value is given as “more toxic”.

As to “5-((3aS,4S,6aR)-2-oxohexahydro-1H-thieno[3,4-d]imidazol-4-yl)-N-((S)-2,3,4,10-tetramethoxy-9-oxo-5,6,7,9-tetrahydrobenzo[a]heptalen-7-yl)pentanamide [Compound 10]”, the IC50 in data set [1] amounted to 15.8 ± 0.31 µM; in [2], 4.85 ± 0.13 µM; in data set [3], 6.35 ± 0.11 µM; in [4], 4.9 ± 0.18 µM. In addition, the Deac released in data set [6] (PBS pH 7.2–7.4, after 24 h incubation in the presence or absence of 20 μM DTT) was less than 1.0%.

A word on the cell viability: it is a read-out of living cells in per cent, often relative to untreated cells. As for “2-((2-((((S)-2,3,4,10-tetramethoxy-9-oxo-5,6,7,9-tetrahydrobenzo[a]heptalen-7-yl)carbamoyl)oxy)ethyl)disulfanyl)ethyl 5-((3aS,4S,6aR)-2-oxohexahydro-1H-thieno[3,4-d]imidazol-4-yl)pentanoate [Compound 9]”, the “anti-tubulin polymerisation activity after coincubation with DTT” value on porcine brain tubulin (compound at 5 µM and DTT at 10 µM) was “strong anti-tubulin polymerisation activity”. For the same molecule, the “inhibition activity on tubulin polymerisation” value at porcine brain tubulin (compound at 5 µM, without DTT) is recorded as “weak inhibition activity”. The IC50 is 4.22 ± 0.102 µM in [1], 0.085 ± 0.008 µM in [2], 0.108 ± 0.01 µM in data set [3] and 0.124 ± 0.011 µM in data set [4]. In addition, the “peak area and peak height (HPLC stability)” value in data set [7] is given as “nearly remained unchanged”. The cell viability was found to be 23.6% with A549 cells (A549, compound at 2-fold IC50, biotin 0.075 μM); 68.9% with A549 cells (A549, compound at 2-fold IC50, biotin 0.60 μM); 17.7% with A549 cells (A549, compound at 2-fold IC50, in the absence of biotin). Besides, the Deac released result in data set [6] (PBS pH 7.2–7.4, in the presence of 5, 10, and 20 μM DTT, within 8 h, 37 °C) is “more than 70%”; in data set [6] (blank PBS (pH 7.2–7.4, without DTT), within 24 h, 37 °C) it was “almost none”.

As for “2-((2-oxo-2–(2-(5-((3aS,4S,6aR)-2-oxohexahydro-1H-thieno[3,4-d]imidazol-4-yl)pentanoyl)hydrazinyl)ethyl)thio)-N-((S)-2,3,4,10-tetramethoxy-9-oxo-5,6,7,9-tetrahydrobenzo[a]heptalen-7-yl)acetamide [Compound 11c]”, the IC50 in data set [1] was 10.7 ± 0.2 µM; in data set [2] it was 1.31 ± 0.092 µM; in data set [3] it was 2.17 ± 0.1 µM; in data set [4], 1.95 ± 0.071 µM.

In the case of `O=C(O)CCCC[C@@H]1SC[C@@H]2NC(=O)N[C@@H]21` [biotin, reference compound], the cytotoxicity alone entry with A549 cells (A549, biotin alone at various concentrations) is on record as “no cytotoxicity”.

Regarding “5-oxo-5–(2-(5-((3aS,4S,6aR)-2-oxohexahydro-1H-thieno[3,4-d]imidazol-4-yl)pentanoyl)hydrazinyl)-N-((S)-2,3,4,10-tetramethoxy-9-oxo-5,6,7,9-tetrahydrobenzo[a]heptalen-7-yl)pentanamide [11 b]”, the IC50 was determined as 13.4 ± 0.18 µM in data set [1], 2.23 ± 0.12 µM in data set [2], 6.94 ± 0.16 µM in data set [3] and 2.29 ± 0.09 µM in data set [4].

The record behind these values is PMC8725855 (Journal of Enzyme Inhibition and Medicinal Chemistry, 2021).
